Reference: PMC10698694 (ACS chemical biology, 2023)

Legend:
Assay in all cases: AlphaScreen competition
Format in all cases: binding
[1] = target: CECR2 bromodomain (CECR2 BD) (Homo sapiens, UniProt Q9BXF3)
[2] = target: T1, BRD9 bromodomain (BRD9 BD) (Homo sapiens, UniProt Q9H8M2)
T1 sequence (Q9H8M2 134-239 limits assumed): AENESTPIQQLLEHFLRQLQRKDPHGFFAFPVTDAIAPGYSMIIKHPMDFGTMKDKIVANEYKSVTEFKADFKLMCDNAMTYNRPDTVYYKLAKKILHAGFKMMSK

[3] = target: BPTF bromodomain (BPTF BD) (Homo sapiens, UniProt Q12830)

Row | SMILES | IC50 [1] [nM] | IC50 [2] [nM] | IC50 [3] [nM]
1 | CS(=O)(=O)c1nc(NCCCn2cccn2)cc(-c2ccc(OCCCN3CCN(CCCCCCOc4cccc5c4C(=O)N(C4CCC(=O)NC4=O)C5=O)CC3)cc2)n1 (stereo not shown) [compound 8, 4-((6-(4-(3-(4-(6-((3-(1H-Pyrazol-1-yl)propyl)amino)-2-(methylsulfonyl)pyrimidin-4-yl)phenoxy)propyl)piperazin-1-yl)hexyl)oxy)-2-(2,6-dioxopiperidin-3-yl)isoindoline-1,3-dione] | 24 | 844 | 146 ± 12
2 | CS(=O)(=O)c1nc(NCCCn2cccn2)cc(-c2ccc(OCCCN3CCN(CCOCCOCCOc4cccc5c4C(=O)N(C4CCC(=O)NC4=O)C5=O)CC3)cc2)n1 (stereo not shown) [compound 9, 4-(2-(2-(2-(4-(3-(4-(6-((3-(1H-Pyrazol-1-yl)propyl)amino)-2-(methylsulfonyl)pyrimidin-4-yl)phenoxy)propyl)piperazin-1-yl)ethoxy)ethoxy)ethoxy)-2-(2,6-dioxopiperidin-3-yl)-isoindoline-1,3-dione] | 33 | 996 | 267 ± 8
3 | CN(CCCOc1ccc(-c2cc(NCCCn3cccn3)nc(S(C)(=O)=O)n2)cc1)CCOCCOCCOc1cccc2c1C(=O)N(C1CCC(=O)NC1=O)C2=O (stereo not shown) [compound 10, 4-(2-(2-(2-((3-(4-(6-((3-(1H-Pyrazol-1-yl)propyl)amino)-2-(methylsulfonyl)pyrimidin-4-yl)phenoxy)propyl)(methyl)-amino)ethoxy)ethoxy)ethoxy)-2-(2,6-dioxopiperidin-3-yl)-isoindoline-1,3-dione] | – | – | 360
